The values that follow come from PubChem BioAssay (NCI).

What all share (experiment): growth of human tumour cells (NCI), 48 h
Test [1] concerns M14 melanoma.
Test [2] relates to COLO 205 colon.
The subject of test [3] is MALME-3M melanoma.
In test [4] the test system is OVCAR-3 ovarian.
The subject of test [5] is UO-31 renal.
The test system of test [6] is SF-539 CNS.
For test [7], the system named is 786-0 renal.
Test [8] has as its system ACHN renal.
Test [9] deals with CAKI-1 renal.
Test [10] deals with SK-MEL-2 melanoma.

SMILES strings stand for the structures. “And” between values parts separate entries of the source, which are not always exact repeats. Identical values can stand only once.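 Cultured in 96-well plates, cells were exposed to test compound for 48 hours across five concentrations. The concentration for 50% growth inhibition is given as GI50. TGI marks complete inhibition of growth.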

Take `CC(C)(C)N=c1n(C(C)(C)C)oc(=O)n1C(C)(C)C`: the TGI in test [1], in test [2], in test [3], in test [4], in test [5] and in test [6] was > 100 µM in each case. For the same compound, the TGI in test [7], in [8], in test [9] and in [10] was > 100 µM each time.
`CN(C)c1ccc(-c2c(C#N)c(S)n(NS(=O)(=O)c3ccccc3)c(=O)c2C#N)cc1`: the TGI in test [1] was > 100 µM; in test [2] it was > 100 µM; in test [3] it was > 100 µM; in test [4] it was > 100 µM; in test [5], 86.4 µM; in test [6], 53.4 µM. Moreover, the TGI in [7] is 40.6 µM; in [8], > 100 µM; in test [9], 76.1 µM; in test [10], > 100 µM.
`C/C(N=Nc1nc2ccccc2s1)=C1/C=CC=CN1O`: the TGI in [1] was > 100 µM; in [2] it was > 100 µM; in [3] it was 57.4 µM; in [4] it was 71.2 µM; in test [5] it was > 100 µM; in test [6] it was > 100 µM. Besides, the TGI in test [7], in test [8], in test [9] and in test [10] was > 100 µM in each case.
For the compound `CC(C)=CCc1c2c(c3occ(-c4ccc(O)c(O)c4)c(=O)c3c1O)C=CC(C)(C)O2`, the TGI in test [1] was 3.5 µM; in test [2], 4.04 µM; in test [3], 2.53 µM; in [4] it was 3.59 µM; in test [5], 2.9 µM; in test [6] it was 4.14 µM. Besides, the TGI in test [7] was 2.88 µM; in test [8] it was 6.29 µM; in test [9], 3.02 µM; in test [10], 11.1 µM.
Take `C/C(=C\c1ccccc1)C(=O)CCN1CCOCC1`: the TGI in test [2] is 31 µM; in [3], 33 µM; in test [4], 34.2 µM; in test [5], 41.5 µM; in test [6], 34.6 µM; in [9], 32.5 µM. The TGI in test [10] is > 59.9 µM.
Turning to `CN(C)C(CN)CC1=C(CC(CN)N(C)C)CCC1` (stereo not drawn), the TGI in test [2], in test [3], in [4], in test [5], in [6] and in test [9] was > 100 µM each time. In [10], the TGI was > 100 µM.
Take `NC(=O)C(=O)N/N=C1/c2ccccc2CC1C1(O)C(=O)Nc2c(Cl)cc(Cl)cc21` (stereo not drawn): the TGI in test [2], in [3], in test [4], in test [5], in test [6] and in test [8] was > 100 µM each time. The TGI in test [9] and in [10] was > 100 µM in each case.
Take `C=C(C)CCC(=O)[C@](C)(O)[C@H]1[C@H](O)C[C@@]2(C)[C@@H]3CCc4c(cc(OC5OC(CO)C(O)C(O)C5O)c(O)c4C)C3(C)C(=O)C[C@]12C` (stereo partly drawn): the TGI in test [1], in test [2], in test [3], in test [4], in test [5] and in [6] was > 100 µM in each case. For the same compound, the TGI in [7], in test [8], in test [9] and in test [10] was > 100 µM each time.
For the compound `COc1cc2c(cc1OCCCCOc1cc(-c3ccc(F)cc3)nc(C)n1)N=C[C@@H]1CCCN1C2=O`, the TGI in [1] was 1.87 µM; in test [2] it was 1.17 µM; in test [3], 1.82 µM; in test [4] it was 2.66 µM; in test [5] it was 12 µM; in test [6], 2.31 µM. The TGI came to 6.94 µM in test [7], 0.823 µM in test [8], 2.05 µM in test [9] and 2.31 µM in test [10].
Regarding `CCOC(=O)C1=C(C(C)=O)CSC(c2ccccc2)=N1`, the TGI in [2], in test [3], in [4], in test [5], in [6] and in test [9] was > 100 µM throughout. Moreover, in test [10], the TGI was > 100 µM.
Take `CC1(C)O[C@@H]2COC(=O)[C@@H]2O1`: the TGI in test [1], in test [2], in [3], in test [4], in test [5] and in test [6] was > 100 µM throughout. Moreover, the TGI in [7], in [8], in [9] and in [10] was > 100 µM throughout.
On to `C=C1C(=O)OC2/C=C(\CO)C(OC(C)=O)CC(O)/C(C)=C/C(OC(=O)C(C)CC)C12` (stereo not drawn), for which the TGI is 31.1 µM and 33.3 µM in test [1]; 28.8 µM and 24.3 µM in test [2]; 31.2 µM and 32 µM in test [3]; 33.4 µM and 30.6 µM in [4]; > 100 µM in test [5]; 37.9 µM and 66 µM in test [6]. For the same compound, the TGI in [7] was 28.8 µM and 52.9 µM; in test [8], 56.7 µM and 72.7 µM; in test [9] it was 73.3 µM and 50.5 µM; in [10] it was 32.3 µM and 33.1 µM.
Take `CCCCCCCCCC[C@H](O)[C@H]1CC[C@H]([C@H]2CC[C@H]([C@H](O)CC[C@H](O)CCCCCCC[C@@H](O)CC3=C[C@H](C)OC3=O)O2)O1`: the TGI was > 100 µM in test [1]; 78.5 µM in test [2]; > 100 µM in test [3]; > 100 µM in test [4]; > 100 µM in [5]; > 100 µM in [6]. Moreover, the TGI in test [7], in test [8], in test [9] and in test [10] was > 100 µM in each case. In addition, the GI50 in test [5] was 23.6 µM; in test [8] it was 10 µM.
Consider `C/C(=N/NC(N)=S)c1ccc2ccccc2c1`, for which the TGI is 79.1 µM in test [1]; 41.9 µM in [2]; > 100 µM in test [3]; > 100 µM in test [4]; 44.4 µM in test [6]; > 100 µM in [8]. The TGI in test [10] worked out at 51.1 µM.
